What all share (test): High-content immunofluorescence (IF) assay, overexpressed full-length FLAG-tagged KDM in HeLa cells
What all share (type): cell-based

One assay addresses KDM5B (Homo sapiens, UniProt Q9UGL1). More on the design: transiently transfecting the full-length FLAG-tagged demethylase (WT) into cells; expressed in transfected cells; host or cells: HeLa. To be noted: for EC50: HeLa cells overexpressing WT KDM5B, H3K4me3 mark, 24 h, read-out: KDM5B, in cells, EC50 by IF assay (head: IC50); for Effect on H3K4me3 mark in KDM5B IF assay, in words: HeLa cells transfected with KDM5B. On the procedure: (§1) HeLa cells (ATCC) were cultured at 37 °C and 5% CO2 in Minimal Essential Media—Eagle (Sigma-Aldrich, UK) supplemented with 10% heat-inactivated foetal calf serum (FCS) (Gibco, UK), and 1% L-glutaMAX (Gibco, UK) in T75 flasks (Sarstedt, UK) and passaged regularly with TrypLE (Life Technologies, UK) before cells reached confluence. On day 0, 7000 cells per well were plated on a 96-well clear bottom CellCarrier plate (PerkinElmer, UK). The next day the cells were transfected with Lipofectamine 3000 (ThermoFisher Scientific, UK) following the manufacturer’s instructions. Briefly, 0.1 µg of plasmid DNA (encoding for the respective demethylase) and 0.15 µL of Lipofectamine 3000 were diluted in separate tubes containing 5 µL OptiMEM. 0.15 µL of P3000 was added to the tube with the DNA. The two solutions were then mixed gently and allowed to incubate for 5 min at room temperature. Next, the DNA-lipid complex was added to the cells for 4 h at 37 °C and 5% CO2.
(§2) Compound dilutions were made in a 96-well PCR plate (Starlab, UK). The culture medium was supplemented with 0.4% DMSO so that the solvent concentration was maintained throughout. Compounds were serially diluted at a 1:2 or 1:3 dilution ratio. Next, the cell culture plate was removed from the incubator and the medium was gently aspirated and replaced with the fresh medium containing diluted compounds.
(§3) Then cells were rinsed once with PBS and blocked for 30 min at room temperature using 3% v/v foetal calf serum diluted in PBS.

The target of the next assay is KDM5A (Homo sapiens, UniProt P29375). To be noted: HeLa cells overexpressing WT KDM5A, H3K4me3 mark, 24 h; for EC50: read-out: KDM5A, in cells, EC50 by IF assay (head: IC50). On the procedure:
On day 0, 7000 cells per well were plated on a 96-well clear bottom CellCarrier plate (PerkinElmer, UK). The next day the cells were transfected with Lipofectamine 3000 (ThermoFisher Scientific, UK) following the manufacturer’s instructions. Briefly, 0.1 µg of plasmid DNA (encoding for the respective demethylase) and 0.15 µL of Lipofectamine 3000 were diluted in separate tubes containing 5 µL OptiMEM. 0.15 µL of P3000 was added to the tube with the DNA. The two solutions were then mixed gently and allowed to incubate for 5 min at room temperature. Next, the DNA-lipid complex was added to the cells for 4 h at 37 °C and 5% CO2. Compound dilutions were made in a 96-well PCR plate (Starlab, UK). The culture medium was supplemented with 0.4% DMSO so that the solvent concentration was maintained throughout. Compounds were serially diluted at a 1:2 or 1:3 dilution ratio. Next, the cell culture plate was removed from the incubator and the medium was gently aspirated and replaced with the fresh medium containing diluted compounds.

The target of a further assay is T1, KDM5D (Homo sapiens, UniProt Q9BY66).
T1 sequence (Q9BY66 458-749 limits assumed): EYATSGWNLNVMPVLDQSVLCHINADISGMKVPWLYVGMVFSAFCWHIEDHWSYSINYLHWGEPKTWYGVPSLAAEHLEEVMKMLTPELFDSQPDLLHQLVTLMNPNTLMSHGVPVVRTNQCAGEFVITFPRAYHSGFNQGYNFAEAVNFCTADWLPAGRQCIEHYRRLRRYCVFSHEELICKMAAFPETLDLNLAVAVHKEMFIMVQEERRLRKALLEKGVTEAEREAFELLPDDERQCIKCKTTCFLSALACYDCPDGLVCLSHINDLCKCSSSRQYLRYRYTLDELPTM
To be noted: HeLa cells overexpressing WT KDM5D, H3K4me3 mark, 24 h; for EC50: read-out: KDM5D, in cells, EC50 by IF assay (head: IC50). As for the experimental part: as §1, §2, §3

A further assay has as its target T2, KDM4A (Homo sapiens, UniProt O75164).
T2 construct: transiently transfecting the full-length FLAG-tagged demethylase (WT) into cells; expressed in transfected cells; host or cells: HeLa
T2 sequence (O75164 1-1064 A482E): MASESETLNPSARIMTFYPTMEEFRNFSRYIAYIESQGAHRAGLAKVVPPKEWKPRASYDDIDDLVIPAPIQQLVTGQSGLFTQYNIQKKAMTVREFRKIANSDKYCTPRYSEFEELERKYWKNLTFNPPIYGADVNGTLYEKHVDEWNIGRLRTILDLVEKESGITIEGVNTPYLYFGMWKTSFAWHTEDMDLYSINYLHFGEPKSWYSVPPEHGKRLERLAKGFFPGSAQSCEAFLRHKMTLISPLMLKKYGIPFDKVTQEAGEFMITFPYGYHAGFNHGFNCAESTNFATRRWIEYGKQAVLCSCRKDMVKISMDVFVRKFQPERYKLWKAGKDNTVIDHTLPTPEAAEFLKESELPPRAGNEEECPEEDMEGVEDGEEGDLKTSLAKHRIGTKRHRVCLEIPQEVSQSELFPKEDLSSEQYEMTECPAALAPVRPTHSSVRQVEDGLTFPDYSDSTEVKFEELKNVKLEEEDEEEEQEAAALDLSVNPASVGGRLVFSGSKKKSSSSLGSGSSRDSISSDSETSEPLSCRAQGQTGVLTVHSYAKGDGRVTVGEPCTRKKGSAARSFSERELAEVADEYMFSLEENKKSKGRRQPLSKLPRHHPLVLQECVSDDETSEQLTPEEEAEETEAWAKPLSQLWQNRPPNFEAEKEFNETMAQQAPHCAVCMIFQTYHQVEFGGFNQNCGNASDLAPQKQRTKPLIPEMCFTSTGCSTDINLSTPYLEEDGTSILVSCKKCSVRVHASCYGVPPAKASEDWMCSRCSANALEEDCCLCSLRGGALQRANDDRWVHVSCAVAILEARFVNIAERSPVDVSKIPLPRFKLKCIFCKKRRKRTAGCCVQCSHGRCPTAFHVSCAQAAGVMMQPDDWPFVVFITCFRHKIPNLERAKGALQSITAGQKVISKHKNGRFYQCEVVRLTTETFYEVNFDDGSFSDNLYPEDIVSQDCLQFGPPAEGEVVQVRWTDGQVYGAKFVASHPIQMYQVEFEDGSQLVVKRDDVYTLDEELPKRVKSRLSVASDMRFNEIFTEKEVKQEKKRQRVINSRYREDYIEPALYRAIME
To be noted: HeLa cells overexpressing WT KDM4A, H3K9me3 mark, 24 h; read-out: KDM4A, in cells, EC50 by IF assay (head: IC50). On the procedure: as §1, §2, §3

Chain of KDM5B (Q9UGL1 whole entry): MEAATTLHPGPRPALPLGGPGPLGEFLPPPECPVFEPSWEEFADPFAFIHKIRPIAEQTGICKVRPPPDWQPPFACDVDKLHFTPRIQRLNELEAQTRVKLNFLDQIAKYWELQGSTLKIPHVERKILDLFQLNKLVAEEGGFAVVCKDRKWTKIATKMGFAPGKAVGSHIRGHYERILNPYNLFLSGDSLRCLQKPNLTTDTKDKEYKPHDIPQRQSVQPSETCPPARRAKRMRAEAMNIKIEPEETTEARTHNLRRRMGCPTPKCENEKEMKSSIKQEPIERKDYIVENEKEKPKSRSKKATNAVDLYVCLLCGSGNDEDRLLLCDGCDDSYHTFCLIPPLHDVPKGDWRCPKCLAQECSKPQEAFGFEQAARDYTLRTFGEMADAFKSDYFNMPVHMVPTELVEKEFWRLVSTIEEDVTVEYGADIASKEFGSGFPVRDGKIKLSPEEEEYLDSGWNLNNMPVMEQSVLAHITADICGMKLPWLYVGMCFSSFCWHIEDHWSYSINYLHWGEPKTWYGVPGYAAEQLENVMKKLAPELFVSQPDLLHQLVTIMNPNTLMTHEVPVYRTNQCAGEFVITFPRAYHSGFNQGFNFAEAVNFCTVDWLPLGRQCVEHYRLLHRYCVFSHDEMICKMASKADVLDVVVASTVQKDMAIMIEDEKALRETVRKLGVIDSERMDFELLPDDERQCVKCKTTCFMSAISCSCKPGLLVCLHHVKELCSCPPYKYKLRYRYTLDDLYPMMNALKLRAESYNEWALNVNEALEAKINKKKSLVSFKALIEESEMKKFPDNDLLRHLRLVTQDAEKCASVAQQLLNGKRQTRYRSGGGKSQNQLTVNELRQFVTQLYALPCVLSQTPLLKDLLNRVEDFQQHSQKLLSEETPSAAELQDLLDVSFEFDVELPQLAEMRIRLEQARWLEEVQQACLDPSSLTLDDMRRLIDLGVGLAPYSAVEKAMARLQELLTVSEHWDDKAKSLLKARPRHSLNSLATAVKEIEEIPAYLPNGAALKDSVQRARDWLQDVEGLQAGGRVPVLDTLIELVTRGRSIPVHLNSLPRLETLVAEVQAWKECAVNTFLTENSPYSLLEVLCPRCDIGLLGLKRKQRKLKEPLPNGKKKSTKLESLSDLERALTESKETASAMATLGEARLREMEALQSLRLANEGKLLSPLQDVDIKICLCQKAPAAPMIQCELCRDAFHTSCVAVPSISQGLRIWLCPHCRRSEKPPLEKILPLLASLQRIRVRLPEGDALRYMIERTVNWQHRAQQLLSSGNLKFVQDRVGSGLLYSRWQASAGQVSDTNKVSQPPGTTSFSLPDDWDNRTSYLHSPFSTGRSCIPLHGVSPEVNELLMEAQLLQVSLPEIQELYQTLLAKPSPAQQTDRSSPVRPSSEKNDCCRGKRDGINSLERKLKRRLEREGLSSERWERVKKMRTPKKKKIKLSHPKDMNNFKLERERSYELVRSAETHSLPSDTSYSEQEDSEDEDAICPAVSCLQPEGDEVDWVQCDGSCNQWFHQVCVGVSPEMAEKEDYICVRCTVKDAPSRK
Chain of KDM5A (P29375 whole entry): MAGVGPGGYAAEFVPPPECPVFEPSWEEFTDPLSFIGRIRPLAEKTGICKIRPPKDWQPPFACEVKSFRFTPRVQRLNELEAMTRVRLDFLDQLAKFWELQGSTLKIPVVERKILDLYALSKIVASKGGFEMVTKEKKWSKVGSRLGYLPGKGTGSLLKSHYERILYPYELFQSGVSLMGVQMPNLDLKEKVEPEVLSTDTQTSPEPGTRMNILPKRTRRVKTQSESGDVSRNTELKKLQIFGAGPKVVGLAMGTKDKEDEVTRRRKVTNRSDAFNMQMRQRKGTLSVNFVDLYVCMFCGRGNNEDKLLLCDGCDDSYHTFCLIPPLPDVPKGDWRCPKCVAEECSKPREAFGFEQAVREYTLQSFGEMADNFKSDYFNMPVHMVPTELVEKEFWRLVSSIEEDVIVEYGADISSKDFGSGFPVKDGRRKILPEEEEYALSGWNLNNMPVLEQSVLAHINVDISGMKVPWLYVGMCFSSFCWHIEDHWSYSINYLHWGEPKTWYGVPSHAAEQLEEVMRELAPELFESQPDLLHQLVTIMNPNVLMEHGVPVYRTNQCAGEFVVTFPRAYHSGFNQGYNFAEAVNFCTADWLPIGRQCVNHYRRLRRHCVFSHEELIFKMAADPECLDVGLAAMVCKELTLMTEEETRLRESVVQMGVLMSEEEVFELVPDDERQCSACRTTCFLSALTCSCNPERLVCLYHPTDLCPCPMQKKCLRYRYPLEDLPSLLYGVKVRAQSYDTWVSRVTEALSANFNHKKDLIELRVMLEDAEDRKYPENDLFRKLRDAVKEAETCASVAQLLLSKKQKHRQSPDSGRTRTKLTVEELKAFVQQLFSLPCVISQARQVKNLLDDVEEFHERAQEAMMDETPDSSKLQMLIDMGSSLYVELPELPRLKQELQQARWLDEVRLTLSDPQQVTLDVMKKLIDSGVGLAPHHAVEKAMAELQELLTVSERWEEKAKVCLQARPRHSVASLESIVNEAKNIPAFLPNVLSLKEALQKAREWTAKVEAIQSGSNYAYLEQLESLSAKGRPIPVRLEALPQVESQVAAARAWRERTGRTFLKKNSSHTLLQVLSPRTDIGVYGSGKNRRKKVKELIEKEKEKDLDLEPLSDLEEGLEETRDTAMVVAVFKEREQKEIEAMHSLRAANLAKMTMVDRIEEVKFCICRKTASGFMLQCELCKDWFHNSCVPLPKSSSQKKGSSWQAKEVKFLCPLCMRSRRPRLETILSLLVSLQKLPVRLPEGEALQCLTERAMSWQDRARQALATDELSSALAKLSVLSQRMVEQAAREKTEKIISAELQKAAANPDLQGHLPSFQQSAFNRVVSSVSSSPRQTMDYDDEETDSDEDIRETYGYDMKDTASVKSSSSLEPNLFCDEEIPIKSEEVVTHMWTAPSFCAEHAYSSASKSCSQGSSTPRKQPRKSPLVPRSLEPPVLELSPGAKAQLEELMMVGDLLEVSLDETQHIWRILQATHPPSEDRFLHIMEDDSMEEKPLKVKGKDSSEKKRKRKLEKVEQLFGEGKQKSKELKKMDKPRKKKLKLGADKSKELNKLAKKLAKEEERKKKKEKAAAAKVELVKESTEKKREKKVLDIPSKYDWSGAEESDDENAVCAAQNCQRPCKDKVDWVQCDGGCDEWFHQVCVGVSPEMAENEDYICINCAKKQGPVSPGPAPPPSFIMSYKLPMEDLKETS

As a reminder, the EC50 is the concentration at which the effect is half-maximal. Take CPI-455: at KDM5B, the 50% effective concentration (EC50) was 60 µM and the “Effect on H3K4me3 mark in KDM5B IF assay, in words” value (from here on “Effect on H3K4me3 mark”) was “dose-dependent increase of the H3K4me3 mark”.
As for `CCN(CCN(C)C)C(=O)CNCc1cc(C(=O)O)ccn1` [KDOAM-20], at KDM5A, the “KDM5A, in cells, EC50 by IF assay (head: IC50)” value is given as “little inhibition”. In addition, the “KDM5D, in cells, EC50 by IF assay (head: IC50)” value on KDM5D is recorded as “little inhibition”. In addition, the 50% effective concentration (EC50) at KDM5B was 20 µM.
For `CCOC(=O)c1ccnc(CNCC(=O)N(CC)CCN(C)C)c1` [KDOAM-21], the EC50 came to 4.8 µM on KDM5A, 70 µM on KDM4A, 4 µM at KDM5D and 0.7 µM at KDM5B.
The like results for `CCN(CCN(C)C)C(=O)CNCc1cncc(C(N)=O)c1` [KDOAM-32] were, in that order, > 100 µM, > 100 µM, > 100 µM and > 100 µM.
Regarding `O=c1[nH]cnc2c(-n3cc(CCN4CCC(c5cccc(Cl)c5)CC4)cn3)cccc12` [CCT366293, 8-(4-(2-(4-(3-Chlorophenyl)piperidin-1-yl)ethyl)-1H-pyrazol-1-yl)quinazolin-4(3H)-one], on KDM4A, the concentration giving a half-maximal response (EC50) is > 100 µM. In addition, at KDM5B, the EC50 is > 100 µM and the “Effect on H3K4me3 mark” value is given as “no effect”.
For `Clc1ccc(N/N=C(\c2ccccc2)c2ccccn2)nc1` [JIB-04 E], at KDM5B, the concentration for a half-maximal effect (EC50) amounted to 3 µM and the “Effect on H3K4me3 mark” value is on record as “dose-dependent increase of H3K4me3”.

The values are drawn from publication PMC5333395, “Assessing histone demethylase inhibitors in cells: lessons learned” (Epigenetics & Chromatin, 2017).
